According to ChEMBL document CHEMBL1145591, “Synthesis of new UV-B light absorbents: (Acetylphenyl)glycosides with antioxidant activities” (Bioorg Med Chem Lett, 2008):

experiment: Antioxidant activity after 1 hr by cytochrome-c reduction assay; type: functional; parameters: scale not given: the % may be the effect or the level left

Going from `CC(=O)c1cccc(O[C@@H]2O[C@H](CO)[C@@H](O)[C@H](O)[C@H]2O)c1` to `CC(=O)c1cccc(O[C@H]2O[C@H](CO)[C@@H](O)[C@H](O)[C@@H]2O)c1`, the Activity rises from 51.7% to 66.9%.

First: CC(=O)c1cccc(O)c1
Second: CC(=O)c1cccc(O[C@@H]2O[C@H](CO)[C@@H](O)[C@H](O)[C@@H]2O)c1
The Activity of the first is lower: 0% for the first, 71.5% for the second.
